Earlier results in patent US20110252579A1, “METHOD FOR TREATING FABRICS” (priority 2010, published 2011).
Counter-ions that a name gives are not always drawn.

tested on: not given; conditions: in water

SMILES	water solubility
OCCOc1ccccc1 [2-phenoxyethanol]	about 2.67%
OCCc1ccccc1 [2-phenylethanol]	about 2%
O=[N+]([O-])C1(Br)COCOC1 [Bronidox L, 5-bromo-5-nitro-1,3-dioxane]	about 0.46%
O=[N+]([O-])C(Br)(CO)CO [Bronopol, 2-bromo-2-nitropropane-1,3-diol]	about 25%
CC1(C)C(=O)N(CO)C(=O)N1CO [DMDM hydantoin, 1,3-bis(hydroxymethyl)-5,5-dimethyl-2,4-imidazolidinedione]	more than 50%
OCc1ccccc1 [benzyl alcohol]	about 4%
[H]/N=C(\N/C(=N/[H])NCCCCCCNC(=N)NC(=N)Nc1ccc(Cl)cc1)Nc1ccc(Cl)cc1 [chlorhexidine diacetate salt, 1,1′-hexamethylene bis(5-(p-chlorophenyl)biguanide), reference compound]	about 1.8%
[H]/N=C(\N/C(=N/[H])NCCCCCCNC(=N)NC(=N)Nc1ccc(Cl)cc1)Nc1ccc(Cl)cc1 [chlorhexidine digluconate salt, 1,1′-hexamethylene bis(5-(p-chlorophenyl)biguanide), reference compound]	about 70%
CC(C)(O)C(Cl)(Cl)Cl [chlorobutanol, 1,1,1-Trichloro-2-methylpropan-2-ol]	about 0.8%
[Na+].[O-][n+]1ccccc1[S-] [sodium pyrithione]	about 50%

tested on: typical Gram negative and positive bacteria, fungi and yeasts; conditions: level from about 0.001% to about 0.5% by weight of the usage composition

SMILES	effectiveness against Gram negative and positive bacteria, fungi and yeasts
Cn1sc2c(c1=O)CCC2 [Promexal, 2-methyl-4,5-trimethylene-4-isothiazolin-3-one]	effective
O=c1[nH]sc2ccccc12 [Proxel, 1,2-benzisothiazolin-3-one]	effective

tested on: bacteria; conditions: not given

SMILES	antimicrobial spectrum
CC1(C)C(=O)N(CO)C(=O)N1CO [DMDM hydantoin, 1,3-bis(hydroxymethyl)-5,5-dimethyl-2,4-imidazolidinedione]	mainly effective on bacteria
